# Assay results published in publication PMC12801355, “Peptide Amphiphiles Hitchhike on Endogenous Biomolecules for Enhanced Cancer Imaging and Therapy” (Advanced Materials (Deerfield Beach, Fla.), 2025).
# Where a SMILES comes first, the peptide text is derived from it. The star is where a group is joined. Palmitoyl = CCCCCCCCCCCCCCCC(=O)*
# Legend:
# human plasma proteins [1] = molecular target: T1, human plasma proteins (Homo sapiens, UniProt P02649); experiment: Mass spectrometry of proteins pulled down with biotinylated SA‐E (SA‐Eb) from human plasma; assay type: binding
# T1 construct: incubated with 50% pooled human plasma at 37 °C for 2 h; from tissue; host or cells: pooled human plasma (50%)
# Protocol: (§1) Samples were prepared for mass spectrometry analysis via a pull‐down of a biotinylated version of the SA‐E probe (SA‐Eb, 100 µM) incubated with 50% pooled human plasma at 37 °C for 2 h. Before incubation with the SA‐Eb‐plasma mixture, magnetic streptavidin‐coated beads (Dynabeads MyOne Streptavidin T1, Invitrogen, 65601) were washed with PBS (10 mM, pH 7.4) then blocked with 1% casein equal to the total initial volume of beads for 15 min at room temperature. After blocking, beads were washed again with PBS. Beads were then combined with SA‐Eb‐plasma solution, 25 µL beads to 200 µL mixture. This mixture was then incubated at room temperature for 30 min. After incubation, the remaining solution was removed, and the beads were washed five times with PBS. Bound SA‐Eb was eluted from beads in 30 µL 0.5% Triton X‐100 solution. Magnetic beads were then removed, and the elution was collected for analysis. For plasma control, the incubation with SA‐Eb step was skipped, and 50% plasma in PBS was incubated with beads and washed and eluted using the same method as the SA‐Eb‐plasma solution. The elution solutions were then analyzed by the Proteomics Shared Resource facility at Oregon Health & Science University (See Supporting Information for details).
# (§2) Sample Preparation. Eluted plasma samples were dried down and stored at -80°C. Samples were thawed at room temperature for 10 min, and 75 µL of SDS protein extraction buffer (5% SDS, 50 mM […]; TEAB) was added to each sample. Samples were shaken in a Thermo mixer for 10 minutes at room temperature and centrifuged at 10,000 g for 5 min. Each sample was transferred from a 0.5 mL tube to a 1.5 mL LoBind centrifuge tube. Samples were reduced by adding 3.4 µL of 0.5 M dithiothreitol and incubated at 95 °C for 10 min. Samples were alkylated by the addition of 6.8 µL of 0.5 M iodoacetamide and were incubated at room temperature for 30 min in the dark. Samples were then acidified by the addition of 8.52 µL of 12% phosphoric acid, and 562 µL of SDS protein binding buffer (90% methanol, 100 mM TEAB, pH 7.51). Samples were transferred 165 µL at a time to S-trap micro columns (Protifi, Farmingdale, NY) and inserted into 1.5 mL of polypropylene tubes. Samples were centrifuged at 4,000 g for 3 min between each addition of the sample. S-trap columns were washed 6 times using 150 µL of 90% methanol containing 100 mM of TEAB followed by centrifugation at 4,000g for 3 min between each wash step. S-trap columns containing the bound sample proteins were transferred to 1.5 mL LoBind centrifuge tubes and 40 µL of 80 ng/µL sequencing grade modified trypsin (Pierce TM Trypsin Protease MS-Grade, XG348166) in 50 mM TEAB was added. S-trap columns were loosely capped, and digestion was performed at 37°C overnight in a humidified chamber.
# (§3) After completion of digestion, peptides were eluted by sequential addition of 40 µL of TEAB, 40 µL of 0.2% aqueous formic acid, and 40 µl of 50% acetonitrile, 0.2% formic acid, with centrifugation at 4,000 g for 4 min between each addition of elution buffer. The elution fractions were combined and then dried by vacuum centrifugation. Samples were reconstituted by adding 20 µL of 5% formic acid, shaking at 37 °C, and spinning at 15,000 g for 5 min. The supernatant of each sample was transferred to an auto-sample vial.
# (§4) Data analysis. Mass spectrometry data from all samples were processed using COMET/PAWS against Uniprot_Human_database. Comet (v. 2016.01, rev. 3)^8 was used to search MS2 Spectra against a January 2023 version of canonical FASTA protein database containing human uniprot sequences, and concatenated sequence-reversed entries to estimate error thresholds and 179 common contaminant sequences and their reversed forms. The database processing was performed using python scripts available at https://github.com/pwilmart/fasta_utilities.git and Comet results were processed using the PAW pipeline2 from https://github.com/pwilmart/PAW_pipeline.git.
# human plasma proteins [2] = molecular target: T2, human plasma proteins (Homo sapiens, UniProt P08519); experiment: as above; assay type: binding
# T2 construct: incubated with 50% pooled human plasma at 37 °C for 2 h; from tissue; host or cells: pooled human plasma (50%)
# Protocol: as §1, §2, §3, §4
# human plasma proteins [3] = molecular target: T3, human plasma proteins (Homo sapiens, UniProt P04114); experiment: as above; assay type: binding
# T3 construct: incubated with 50% pooled human plasma at 37 °C for 2 h; from tissue; host or cells: pooled human plasma (50%)
# Protocol: as §1, §2, §3, §4
# human plasma proteins [4] = molecular target: T4, human plasma proteins (Homo sapiens, UniProt P02652); experiment: as above; assay type: binding
# T4 construct: incubated with 50% pooled human plasma at 37 °C for 2 h; from tissue; host or cells: pooled human plasma (50%)
# Protocol: as §1, §2, §3, §4
# human plasma proteins [5] = molecular target: T5, human plasma proteins (Homo sapiens, UniProt P02654); experiment: as above; assay type: binding
# T5 construct: incubated with 50% pooled human plasma at 37 °C for 2 h; from tissue; host or cells: pooled human plasma (50%)
# T5 sequence (P02654 27-83): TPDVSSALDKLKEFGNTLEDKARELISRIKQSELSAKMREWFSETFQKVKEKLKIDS
# Protocol: as §1, §2, §3, §4
# human plasma proteins [6] = molecular target: T6, human plasma proteins (Homo sapiens, UniProt P05090); experiment: as above; assay type: binding
# T6 construct: incubated with 50% pooled human plasma at 37 °C for 2 h; from tissue; host or cells: pooled human plasma (50%)
# Protocol: as §1, §2, §3, §4
# RG2 xenografts = experiment: Flow cytometry of mCherry expressing RG2 xenografts; assay type: in vivo, mouse; conditions: Cy5 SA‐E 50 nmol IV
# Protocol: RG2‐mCherry cells (100 µL sterile DMEM, 0.5 × 10^7 cells mL^−1) were implanted subcutaneously in nude mice and allowed to grow to 0.5–1 cm. Mice were then injected intravenously with the Cy5 labeled SA‐E (100 µL, 0.5 mM). 2 days later, tumors were extracted, minced, and dissociated using 1 mg mL^−1 solution collagenase/dispase (Roche, 10269638001 and 11097113001) for 45 min at 37 °C. The solution was broken down with pipetting and filtered through a 70 µm filter. The single‐cell solution was suspended in sterile PBS (10 mM, pH 7.4) and then incubated with 1:50 dilution of AlexaFluor 488 Rat Anti‐Mouse CD45 antibody (BD Pharminogen, 567377) for 45 min at room temperature. Finally, the cells were pelleted and, washed and incubated with 5 µM Calcein Blue, AM (Invitrogen, C1429) for 20 min. The cells were then analyzed in BD FACSymphony in the DAPI channel (355 nm laser, 450/50 filter), FITC channel (488 nm laser, 515/30 filter), Cy3 channel (561 nm laser, 586/15 filter), and Cy5 channel (628 nm laser, 670/30 filter). Cells in culture were used to establish size and mCherry intensity. […] Finally, three experimental mice were analyzed in all channels using the gating established from the controls. Gating was performed in FlowJo software.
# T4 sequence (P02652 19-100): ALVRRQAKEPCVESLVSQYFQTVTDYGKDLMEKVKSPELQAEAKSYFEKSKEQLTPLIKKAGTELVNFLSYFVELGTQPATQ
# T2 sequence (P08519 20-2040): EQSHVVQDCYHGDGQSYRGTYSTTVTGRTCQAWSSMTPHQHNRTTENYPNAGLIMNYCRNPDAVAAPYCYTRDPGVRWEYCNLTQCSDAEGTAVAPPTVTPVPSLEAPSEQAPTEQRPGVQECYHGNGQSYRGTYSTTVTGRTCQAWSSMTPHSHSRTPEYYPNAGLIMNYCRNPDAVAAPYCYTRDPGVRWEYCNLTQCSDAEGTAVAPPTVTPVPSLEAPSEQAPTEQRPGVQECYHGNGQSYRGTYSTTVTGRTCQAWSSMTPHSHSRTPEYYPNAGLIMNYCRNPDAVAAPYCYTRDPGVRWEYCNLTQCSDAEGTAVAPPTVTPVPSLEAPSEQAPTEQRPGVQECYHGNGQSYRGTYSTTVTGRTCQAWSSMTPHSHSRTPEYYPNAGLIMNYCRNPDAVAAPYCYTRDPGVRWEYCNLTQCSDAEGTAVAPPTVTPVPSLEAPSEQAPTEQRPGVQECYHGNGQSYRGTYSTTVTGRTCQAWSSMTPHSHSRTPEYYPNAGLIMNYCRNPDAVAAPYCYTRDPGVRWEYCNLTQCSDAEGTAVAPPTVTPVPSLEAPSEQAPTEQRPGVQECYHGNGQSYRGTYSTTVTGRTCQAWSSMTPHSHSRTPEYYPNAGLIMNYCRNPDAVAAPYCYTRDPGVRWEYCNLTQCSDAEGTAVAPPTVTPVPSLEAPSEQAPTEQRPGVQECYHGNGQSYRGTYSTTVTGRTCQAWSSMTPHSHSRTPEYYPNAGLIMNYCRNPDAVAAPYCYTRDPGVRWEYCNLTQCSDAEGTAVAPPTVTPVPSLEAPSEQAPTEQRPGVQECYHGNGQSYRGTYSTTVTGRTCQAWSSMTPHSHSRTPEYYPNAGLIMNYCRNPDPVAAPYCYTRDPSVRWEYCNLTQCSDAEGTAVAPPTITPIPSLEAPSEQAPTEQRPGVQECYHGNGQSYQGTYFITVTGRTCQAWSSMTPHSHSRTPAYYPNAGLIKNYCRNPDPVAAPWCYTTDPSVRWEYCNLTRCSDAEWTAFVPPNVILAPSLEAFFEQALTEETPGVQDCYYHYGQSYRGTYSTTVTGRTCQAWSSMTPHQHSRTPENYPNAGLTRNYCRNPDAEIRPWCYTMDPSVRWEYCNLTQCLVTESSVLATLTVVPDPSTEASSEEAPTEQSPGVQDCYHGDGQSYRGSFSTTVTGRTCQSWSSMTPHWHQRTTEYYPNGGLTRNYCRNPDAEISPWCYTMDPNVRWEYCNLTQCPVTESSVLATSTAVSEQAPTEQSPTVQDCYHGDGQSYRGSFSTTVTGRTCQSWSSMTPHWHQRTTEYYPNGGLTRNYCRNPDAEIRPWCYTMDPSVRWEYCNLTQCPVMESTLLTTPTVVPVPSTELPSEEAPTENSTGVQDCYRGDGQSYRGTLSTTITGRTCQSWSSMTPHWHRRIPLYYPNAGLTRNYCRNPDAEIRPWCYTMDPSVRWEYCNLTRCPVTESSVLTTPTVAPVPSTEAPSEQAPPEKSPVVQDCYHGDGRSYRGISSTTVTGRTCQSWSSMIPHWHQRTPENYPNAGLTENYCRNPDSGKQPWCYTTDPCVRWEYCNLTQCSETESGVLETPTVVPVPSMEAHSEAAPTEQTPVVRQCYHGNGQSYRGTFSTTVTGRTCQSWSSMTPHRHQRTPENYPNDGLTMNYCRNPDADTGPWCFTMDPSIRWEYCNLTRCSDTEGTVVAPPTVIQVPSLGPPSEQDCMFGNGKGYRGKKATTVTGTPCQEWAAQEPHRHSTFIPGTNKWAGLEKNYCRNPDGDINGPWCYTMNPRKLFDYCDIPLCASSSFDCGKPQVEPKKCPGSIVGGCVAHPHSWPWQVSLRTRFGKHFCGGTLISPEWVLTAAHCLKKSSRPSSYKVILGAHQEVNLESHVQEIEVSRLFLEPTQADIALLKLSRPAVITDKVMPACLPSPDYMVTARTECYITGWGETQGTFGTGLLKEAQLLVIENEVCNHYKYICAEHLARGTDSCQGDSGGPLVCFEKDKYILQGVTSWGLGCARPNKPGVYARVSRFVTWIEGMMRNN
# T6 sequence (P05090 21-189): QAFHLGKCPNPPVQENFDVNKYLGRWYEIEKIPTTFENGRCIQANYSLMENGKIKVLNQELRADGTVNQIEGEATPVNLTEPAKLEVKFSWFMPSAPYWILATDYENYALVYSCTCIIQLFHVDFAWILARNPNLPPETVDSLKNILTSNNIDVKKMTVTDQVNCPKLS
# T1 sequence (P02649 19-317): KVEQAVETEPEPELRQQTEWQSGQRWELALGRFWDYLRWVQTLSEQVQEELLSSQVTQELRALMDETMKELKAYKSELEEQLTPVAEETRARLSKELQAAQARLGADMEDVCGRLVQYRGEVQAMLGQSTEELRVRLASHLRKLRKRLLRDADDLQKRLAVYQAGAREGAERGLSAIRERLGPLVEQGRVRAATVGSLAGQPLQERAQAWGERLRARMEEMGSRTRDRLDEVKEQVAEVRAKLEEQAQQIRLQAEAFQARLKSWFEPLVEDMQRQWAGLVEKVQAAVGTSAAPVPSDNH
smiles,measurement,setting,value
CCCCCCCCCCCCCCCC(=O)NCC(=O)NCC(=O)NCC(=O)N[C@@H](Cc1c[nH]cn1)C(=O)N[C@@H](C)C(=O)N[C@@H](C)C(=O)N[C@@H](CC(N)=O)C(=O)NCC(=O)N[C@@H](CCC(=O)O)C(=O)N[C@@H](CCC(=O)O)C(=O)N[C@@H](CS)C(=O)N[C@@H](CCC(=O)O)C(=O)O [SA‐E] (Palmitoyl-GGGHAANGEECE-OH),"Percentage, Apolipoprotein E",human plasma proteins [1]; replicate 1,1.8%
same,"Total Counts, Apolipoprotein E",human plasma proteins [1]; replicate 1,66
same,"Percentage, Apolipoprotein E",human plasma proteins [1]; replicate 2,2.1%
same,"Total Counts, Apolipoprotein E",human plasma proteins [1]; replicate 2,59
same,"Percentage, Apolipoprotein(a)",human plasma proteins [2]; replicate 1,0.1%
same,"Total Counts, Apolipoprotein(a)",human plasma proteins [2]; replicate 1,4
same,"Percentage, Apolipoprotein(a)",human plasma proteins [2]; replicate 2,0.1%
same,"Total Counts, Apolipoprotein(a)",human plasma proteins [2]; replicate 2,3
same,"Percentage, Apolipoprotein B-100",human plasma proteins [3]; replicate 1,4.7%
same,"Total Counts, Apolipoprotein B-100",human plasma proteins [3]; replicate 1,166
same,"Percentage, Apolipoprotein B-100",human plasma proteins [3]; replicate 2,6.0%
same,"Total Counts, Apolipoprotein B-100",human plasma proteins [3]; replicate 2,170
same,"Percentage, Apolipoprotein A-II",human plasma proteins [4]; replicate 1,0.2%
same,"Total Counts, Apolipoprotein A-II",human plasma proteins [4]; replicate 1,6
same,"Percentage, Apolipoprotein A-II",human plasma proteins [4]; replicate 2,0.2%
same,"Total Counts, Apolipoprotein A-II",human plasma proteins [4]; replicate 2,6
same,"Percentage, Apolipoprotein C-I",human plasma proteins [5]; replicate 1,0.2%
same,"Total Counts, Apolipoprotein C-I",human plasma proteins [5]; replicate 1,6
same,"Percentage, Apolipoprotein C-I",human plasma proteins [5]; replicate 2,0.3%
same,"Total Counts, Apolipoprotein C-I",human plasma proteins [5]; replicate 2,9
same,"Percentage, Apolipoprotein D",human plasma proteins [6]; replicate 1,0.6%
same,"Total Counts, Apolipoprotein D",human plasma proteins [6]; replicate 1,22
same,"Percentage, Apolipoprotein D",human plasma proteins [6]; replicate 2,0.8%
same,"Total Counts, Apolipoprotein D",human plasma proteins [6]; replicate 2,22
same,CD45 and mCherry negative cells (tumor stroma) containing Cy5,RG2 xenografts; 2 days,35%–40
same,CD45 positive only (white blood cells) containing Cy5,RG2 xenografts; 2 days,35%–40
same,enrichment in cancer cells compared to other cells in the tumor,RG2 xenografts; 2 days,approximately two‐fold
same,mCherry expressing cancer cells containing Cy5,"RG2 xenografts; tumors harvested 2 days later, three mice",≈ 70%
